Test results published in patent publication US20250186463A1, “ABIRATERONE DECANOATE PRODRUGS AND USE IN THERAPY” (PROPELLA THERAPEUTICS, INC., priority 2022, published 2025).

Test system: serum testosterone
Assay: Phase 1/2a open-label study of i.m. abiraterone decanoate depot in advanced prostate cancer: serum testosterone
Format: in vivo, human
Conditions: for serum testosterone reduction from baseline: day 168
Protocol: This is a Phase 1/2a, Open-label, Multicenter Study of Intramuscular Abiraterone Decanoate Depot in Patients with Advanced Prostate Cancer.
Formulations and dosing regimen: The formulation used in the study (abiraterone decanoate for intramuscular [i.m.] injection) is a solution formulation of abiraterone decanoate at a concentration of 180 mg/mL and will be provided as a 10 mL vial containing 990 mg of abiraterone decanoate in 5.5 mL of solution. See further details of the formulations in Example 2 (for each milliliter: Abiraterone Decanoate, about 180 mg/mL; Benzyl Alcohol, about 100 mg/mL; Benzyl Benzoate, about 200 mg/mL; and Corn oil, q.s. to 1 mL). Abiraterone Decanoate will be administered as an i.m. injection every 84 days (±3 days). Dose escalation will proceed with a modified Fibonacci sequence. Based on emerging data, intermediate doses may be evaluated.
Study Design: This is a Phase 1/2a, Open-label, Multicenter Study of Intramuscular Abiraterone Decanoate Depot in Patients with Advanced Prostate Cancer. In Phase 1, all patients will receive i.m. Abiraterone Decanoate depot in 84-day treatment cycles combined with daily oral prednisone or dexamethasone. In Phase 2a, patients will be randomized 1:1 and treated with i.m. Abiraterone Decanoate depot in 84-day treatment cycles in combination with dexamethasone (Arm A) or abiraterone acetate daily+prednisone (Arm B). In both Phases, patients will undergo scheduled periodic assessments of serum testosterone levels. Participants may continue treatment until they meet any discontinuation criteria outlined in the protocol.
Phase 1—Dose Escalation: Eligible patients with metastatic castration-sensitive prostate cancer (mCSPC) and patients with metastatic castration-resistant prostate cancer (mCRPC) will be enrolled. The initial dose of Abiraterone Decanoate to be administered is based on findings from completed non-human primate toxicology and pharmacology studies; dose escalation will proceed in a modified Fibonacci sequence. A Safety Review Committee (SRC) will be established to review available cohort safety data, and pharmacokinetic and pharmacodynamic findings (particularly testosterone suppression) to recommend a decision on dose escalation including whether intermediate doses should be explored.
Pharmacodynamic Analysis: Determination of Prostate Specific Antigen (PSA), serum testosterone, dehydroepiandrosterone (DHEA), dehydroepiandrosterone sulfate (DHEA-S), androstenedione, dihydrotestosterone (DHT), progesterone, cortisol, adrenocorticotropic hormone (ACTH), corticosterone, 11-dexoycorticosterone (11-DOC) and 11-deoxycortisol.
Based on the available data, the recommended dose for Phase 2 is about 1260 mg abiraterone decanoate once every three months (12 weeks). All cohorts 1 and 2 in this clinical study were treated with prednisone, 5 mg orally once or twice daily; and all cohorts 3-5 were treated with dexamethasone, 0.5 mg orally once daily. The results shown herein for these cohorts should be understood accordingly.
The median baseline T level, calculated from mean of screening and Day 1 of Cycle 1 pre-dose samples, was 7.45 ng/dL.

SMILES: CCCCCCCCCC(=O)O[C@H]1CC[C@@]2(C)C(=CC[C@@H]3[C@@H]2CC[C@]2(C)C(c4cccnc4)=CC[C@@H]32)C1 [abiraterone decanoate]
- Serum Testosterone (% CFB) (Cohort 1, 180 mg i.m., Study Day 1 (baseline)): 0%
- Serum Testosterone (% CFB) (Cohort 1, 180 mg i.m., Study Day 2): −33%
- Serum Testosterone (% CFB) (Cohort 1, 180 mg i.m., Study Day 3): −42%
- Serum Testosterone (% CFB) (Cohort 1, 180 mg i.m., Study Day 5): −48%
- Serum Testosterone (% CFB) (Cohort 1, 180 mg i.m., Study Day 7): −52%
- Serum Testosterone (% CFB) (Cohort 1, 180 mg i.m., Study Day 10): −61%
- Serum Testosterone (% CFB) (Cohort 1, 180 mg i.m., Study Day 14): −67%
- Serum Testosterone (% CFB) (Cohort 1, 180 mg i.m., Study Day 21): −71%
- Serum Testosterone (% CFB) (Cohort 1, 180 mg i.m., Study Day 28): −73%
- Serum Testosterone (% CFB) (Cohort 1, 180 mg i.m., Study Day 42): −65%
- Serum Testosterone (% CFB) (Cohort 1, 180 mg i.m., Study Day 56): −55%
- Serum Testosterone (% CFB) (Cohort 1, 180 mg i.m., Study Day 70): −47%
- Serum Testosterone (% CFB) (Cohort 2, 360 mg i.m., Study Day 1 (baseline)): 0%
- Serum Testosterone (% CFB) (Cohort 2, 360 mg i.m., Study Day 2): −11%
- Serum Testosterone (% CFB) (Cohort 2, 360 mg i.m., Study Day 3): 0%
- Serum Testosterone (% CFB) (Cohort 2, 360 mg i.m., Study Day 5): −28%
- Serum Testosterone (% CFB) (Cohort 2, 360 mg i.m., Study Day 7): −49%
- Serum Testosterone (% CFB) (Cohort 2, 360 mg i.m., Study Day 10): −51%
- Serum Testosterone (% CFB) (Cohort 2, 360 mg i.m., Study Day 14): −67%
- Serum Testosterone (% CFB) (Cohort 2, 360 mg i.m., Study Day 21): −72%
- Serum Testosterone (% CFB) (Cohort 2, 360 mg i.m., Study Day 28): −71%
- Serum Testosterone (% CFB) (Cohort 2, 360 mg i.m., Study Day 42): −64%
- Serum Testosterone (% CFB) (Cohort 2, 360 mg i.m., Study Day 56): −60%
- Serum Testosterone (% CFB) (Cohort 2, 360 mg i.m., Study Day 70): −56%
- Serum Testosterone (% CFB) (Cohort 2, 360 mg i.m., Study Day 77): −56%
- Serum Testosterone (% CFB) (Cohort 2, 360 mg i.m., Study Day 84): −49%
- Serum Testosterone (% CFB) (Cohort 2, 360 mg i.m., Study Day 112): −79%
- Serum Testosterone (% CFB) (Cohort 2, 360 mg i.m., Study Day 140): −63%
- Serum Testosterone (% CFB) (Cohort 2, 360 mg i.m., Study Day 168): −32%
- Serum Testosterone (% CFB) (Cohort 2, 360 mg i.m., Study Day 196): −56%
- Serum Testosterone (% CFB) (Cohort 3, 720 mg i.m., Study Day 1 (baseline)): 0%
- Serum Testosterone (% CFB) (Cohort 3, 720 mg i.m., Study Day 2): −41%
- Serum Testosterone (% CFB) (Cohort 3, 720 mg i.m., Study Day 3): −50%
- Serum Testosterone (% CFB) (Cohort 3, 720 mg i.m., Study Day 5): −48%
- Serum Testosterone (% CFB) (Cohort 3, 720 mg i.m., Study Day 7): −65%
- Serum Testosterone (% CFB) (Cohort 3, 720 mg i.m., Study Day 10): −74%
- Serum Testosterone (% CFB) (Cohort 3, 720 mg i.m., Study Day 14): −82%
- Serum Testosterone (% CFB) (Cohort 3, 720 mg i.m., Study Day 21): −87%
- Serum Testosterone (% CFB) (Cohort 3, 720 mg i.m., Study Day 28): −85%
- Serum Testosterone (% CFB) (Cohort 3, 720 mg i.m., Study Day 42): −81%
- Serum Testosterone (% CFB) (Cohort 3, 720 mg i.m., Study Day 56): −83%
- Serum Testosterone (% CFB) (Cohort 3, 720 mg i.m., Study Day 70): −81%
- Serum Testosterone (% CFB) (Cohort 3, 720 mg i.m., Study Day 77): −80%
- Serum Testosterone (% CFB) (Cohort 3, 720 mg i.m., Study Day 84): −76%
- Serum Testosterone (% CFB) (Cohort 3, 720 mg i.m., Study Day 112): −94%
- Serum Testosterone (% CFB) (Cohort 3, 720 mg i.m., Study Day 140): −88%
- Serum Testosterone (% CFB) (Cohort 3, 720 mg i.m., Study Day 168): −80%
- Serum Testosterone (% CFB) (Cohort 3, 720 mg i.m., Study Day 196): −93%
- Serum Testosterone (% CFB) (Cohort 4, 1260 mg i.m., Study Day 1 (baseline)): 0%
- Serum Testosterone (% CFB) (Cohort 4, 1260 mg i.m., Study Day 2): −51%
- Serum Testosterone (% CFB) (Cohort 4, 1260 mg i.m., Study Day 3): −65%
- Serum Testosterone (% CFB) (Cohort 4, 1260 mg i.m., Study Day 5): −69%
- Serum Testosterone (% CFB) (Cohort 4, 1260 mg i.m., Study Day 7): −79%
- Serum Testosterone (% CFB) (Cohort 4, 1260 mg i.m., Study Day 10): −79%
- Serum Testosterone (% CFB) (Cohort 4, 1260 mg i.m., Study Day 14): −80%
- Serum Testosterone (% CFB) (Cohort 4, 1260 mg i.m., Study Day 21): −88%
- Serum Testosterone (% CFB) (Cohort 4, 1260 mg i.m., Study Day 28): −89%
- Serum Testosterone (% CFB) (Cohort 4, 1260 mg i.m., Study Day 42): −90%
- Serum Testosterone (% CFB) (Cohort 4, 1260 mg i.m., Study Day 56): −89%
- Serum Testosterone (% CFB) (Cohort 4, 1260 mg i.m., Study Day 70): −80%
- Serum Testosterone (% CFB) (Cohort 4, 1260 mg i.m., Study Day 77): −87%
- Serum Testosterone (% CFB) (Cohort 4, 1260 mg i.m., Study Day 84): −83%
- Serum Testosterone (% CFB) (Cohort 4, 1260 mg i.m., Study Day 112): −93%
- Serum Testosterone (% CFB) (Cohort 4, 1260 mg i.m., Study Day 140): −89%
- Serum Testosterone (% CFB) (Cohort 4, 1260 mg i.m., Study Day 168): −86%
- Serum Testosterone (% CFB) (Cohort 4, 1260 mg i.m., Study Day 196): −97%
- Serum Testosterone (% CFB) (Cohort 5, 1800 mg i.m., Study Day 1 (baseline)): 0%
- Serum Testosterone (% CFB) (Cohort 5, 1800 mg i.m., Study Day 2): −41%
- Serum Testosterone (% CFB) (Cohort 5, 1800 mg i.m., Study Day 3): −46%
- Serum Testosterone (% CFB) (Cohort 5, 1800 mg i.m., Study Day 5): −62%
- Serum Testosterone (% CFB) (Cohort 5, 1800 mg i.m., Study Day 7): −76%
- Serum Testosterone (% CFB) (Cohort 5, 1800 mg i.m., Study Day 10): −79%
- Serum Testosterone (% CFB) (Cohort 5, 1800 mg i.m., Study Day 14): −85%
- Serum Testosterone (% CFB) (Cohort 5, 1800 mg i.m., Study Day 21): −88%
- Serum Testosterone (% CFB) (Cohort 5, 1800 mg i.m., Study Day 28): −88%
- Serum Testosterone (% CFB) (Cohort 5, 1800 mg i.m., Study Day 42): −93%
- Serum Testosterone (% CFB) (Cohort 5, 1800 mg i.m., Study Day 56): −79%
- Serum Testosterone (% CFB) (Cohort 5, 1800 mg i.m., Study Day 70): −87%
- Serum Testosterone (% CFB) (Cohort 5, 1800 mg i.m., Study Day 77): −88%
- Serum Testosterone (% CFB) (Cohort 5, 1800 mg i.m., Study Day 84): −88%
- Serum Testosterone (% CFB) (Cohort 5, 1800 mg i.m., Study Day 112): −83%
- Serum Testosterone (% CFB) (Cohort 5, 1800 mg i.m., Study Day 140): −96%
- Serum Testosterone (% CFB) (Cohort 5, 1800 mg i.m., Study Day 168): −95%
- Serum Testosterone (% CFB) (Cohort 5, 1800 mg i.m., Study Day 196): −98%
- decline in testosterone (Patient 1, cohort 1, 180 mg, treatment days 21-56): 59-61%
- androgen suppression (Patient 2, cohort 2, 360 mg, progressed after Xtandi, FIG. 6): sustained androgen suppression
- serum testosterone reduction from baseline (cohort 3 (720 mg)): 80%
- serum testosterone reduction from baseline (cohort 4 (1260 mg)): 86%
- serum testosterone reduction from baseline (cohort 5 (1800 mg)): up to 95%
- patients with a 90% reduction in testosterone levels compared to baseline or values reduced to ≤1 ng/dL (patients dosed at 720 mg and above, day 28): 13 out of 16
